Source: US20260022142A1, “MACROCYCLIC IMMUNOMODULATORS” (Bristol-Myers Squibb Company, priority 2022, published 2026)
Numbered stars: 1 amine (or outer) side, 2 acyl side, 3 side chain; on linkers, the order of the positions; unused ones are H or OH. Bridge positions count the residues as written; N and C are the ends. Square brackets hold non-standard residues; d marks the D form. Peptide text beside a SMILES is read from it. * marks the point of attachment. ξ: configuration not given here. Bip = N[C@@H](Cc1ccc(-c2ccccc2)cc1)C(=O)O; Tyr(3-Me) = Cc1cc(C[C@H](N)C(=O)O)ccc1O; Phe(3-Me) = Cc1cccc(C[C@H](N)C(=O)O)c1; X5 = CC(C)(CCN)[C@H](N[*:1])C(=O)[*:2]; Val(3-OH) = CC(C)(O)[C@H](N)C(=O)O; 4Pal = N[C@@H](Cc1ccncc1)C(=O)O; Cha = N[C@@H](CC1CCCCC1)C(=O)O; CH2COCH2 = O=C(C[*:1])C[*:2]; Carboxymethyl = O=C(O)C*; Orn = NCCC[C@H](N)C(=O)O; Aun = NCCCCCCCCCCC(=O)O; Dab = NCC[C@H](N)C(=O)O; Dap = NC[C@H](N)C(=O)O; Piv = CC(C)(C)C(=O)*; ξV = CC(C)C(N)C(=O)O

Target: T1, PD-1/PD-L1 interaction (PE-labeled human PD-L1-Ig binding to Jurkat cell line over-expressing human PD-1) (Homo sapiens, UniProt Q15116)
T1 construct: expressed in transfected cells; host or cells: Jurkat
Assay: Jurkat-PD-1 Cell Binding High-Content Screening Assay (CBA)
Format: cell-based
Settings: Jurkat cell line over-expressing human PD-1; PE-labeled PD-L1-Ig 20 nM final; read-out: Jurkat hPD1-PDL1 IC50
Procedure, shortened: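 Jurkat cells stably over-expressing human PD-1 were seeded in DMEM with 10% fetal calf serum and pre-incubated with compound for 2 h at 37° C. PE-labeled human PD-L1-Ig was then added at 20 nM final for 1 hour, after which cells were fixed with paraformaldehyde, Hoechst-stained and imaged by high-content microscopy.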

T1 sequence (Q15116 25-288): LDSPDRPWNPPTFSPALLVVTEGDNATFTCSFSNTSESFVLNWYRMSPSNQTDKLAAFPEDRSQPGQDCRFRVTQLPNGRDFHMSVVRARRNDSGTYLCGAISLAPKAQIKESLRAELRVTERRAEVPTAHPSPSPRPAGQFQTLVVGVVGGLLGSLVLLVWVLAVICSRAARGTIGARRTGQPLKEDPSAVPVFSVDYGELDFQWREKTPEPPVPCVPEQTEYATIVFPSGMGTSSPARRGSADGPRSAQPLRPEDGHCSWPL

| SMILES | IC50 [nM] |
| --- | --- |
| Cc1cc(C[C@@H]2NC(=O)[C@H](CC(=O)O)NC(=O)[C@H](Cc3ccc(OCC(=O)O)cc3)NC(=O)[C@H](CN)NC(=O)CSC[C@@H](C(=O)N[C@@H](CCN)C(=O)NCCCCCCCCCCC(=O)O)NC(=O)[C@H]([C@@H](C)O)NC(=O)[C@H](C(C)C)NC(=O)[C@H](CC3CCCCC3)NC(=O)[C@H](CCN)NC(=O)[C@@H](CC(C)C)NC(=O)[C@H](CCCN)NC(=O)[C@H](Cc3ccc(OCC(=O)O)cc3)NC(=O)[C@H](Cc3ccc(-c4ccccc4)cc3)NC(=O)[C@H](Cc3ccc(O)cc3)NC2=O)ccc1O [Compound 2108] ({CH2CO}-[Dap]Y(Carboxymethyl)D[Tyr(3-Me)]Y[Bip]Y(Carboxymethyl)[Orn][dL][Dab][Cha]VTC[Dab][Aun]-OH; thioether N-14) | 21 |
| Cc1cccc(C[C@@H]2NC(=O)[C@H](CC(=O)O)NC(=O)[C@H](Cc3ccc(OCC(=O)O)cc3)NC(=O)[C@H](CCCNC(=N)N)NC(=O)CSC[C@@H](C(=O)N[C@@H](CCN)C(=O)NCCCCCCCCCCC(=O)O)NC(=O)[C@H]([C@@H](C)O)NC(=O)[C@H](C(C)C)NC(=O)[C@H](CC3CCCCC3)NC(=O)[C@H](CCN)NC(=O)[C@@H](CC(C)C)NC(=O)[C@H](CCCN)NC(=O)[C@H](Cc3ccc(OCC(=O)O)cc3)NC(=O)[C@H](Cc3ccc(-c4ccccc4)cc3)NC(=O)[C@H](C(C)(C)O)NC2=O)c1 [Compound 2109] ({CH2CO}-RY(Carboxymethyl)D[Phe(3-Me)][Val(3-OH)][Bip]Y(Carboxymethyl)[Orn][dL][Dab][Cha]VTC[Dab][Aun]-OH; thioether N-14) | 22.2 |
| Cc1cccc(C[C@@H]2NC(=O)[C@H](CC(=O)O)NC(=O)[C@H](Cc3ccc(OCC(=O)O)cc3)NC(=O)[C@H](CCCNC(=N)N)NC(=O)CSC[C@@H](C(=O)N[C@@H](CCN)C(=O)NCCCCCCCCCCC(=O)O)NC(=O)[C@H](CO)NC(=O)[C@H](C(C)C)NC(=O)[C@H](CC3CCCCC3)NC(=O)[C@H](CCN)NC(=O)[C@@H](CC(C)C)NC(=O)[C@H](CCCN)NC(=O)[C@H](Cc3ccc(OCC(=O)O)cc3)NC(=O)[C@H](Cc3ccc(-c4ccccc4)cc3)NC(=O)[C@H](C(C)(C)O)NC2=O)c1 [Compound 2110] ({CH2CO}-RY(Carboxymethyl)D[Phe(3-Me)][Val(3-OH)][Bip]Y(Carboxymethyl)[Orn][dL][Dab][Cha]VSC[Dab][Aun]-OH; thioether N-14) | 24.1 |
| Cc1cccc(C[C@@H]2NC(=O)[C@H](CC(=O)O)NC(=O)[C@H](Cc3ccc(OCC(=O)O)cc3)NC(=O)[C@H](CCCNC(=N)N)NC(=O)CSC[C@@H](C(=O)N[C@@H](CCN)C(=O)NCCCCCCCCCCC(=O)O)NC(=O)[C@H](CO)NC(=O)[C@H](C(C)C)NC(=O)[C@H](CC3CCCCC3)NC(=O)[C@H](CCN)NC(=O)[C@@H](CC(C)C)NC(=O)[C@H](CCCN)NC(=O)[C@H](Cc3ccncc3)NC(=O)[C@H](Cc3ccc(-c4ccccc4)cc3)NC(=O)[C@H](Cc3ccc(OCC(=O)O)cc3)NC2=O)c1 [Compound 2115] ({CH2CO}-RY(Carboxymethyl)D[Phe(3-Me)]Y(Carboxymethyl)[Bip][4Pal][Orn][dL][Dab][Cha]VSC[Dab][Aun]-OH; thioether N-14) | 29.3 |
| Cc1cccc(C[C@@H]2NC(=O)[C@H](CC(=O)O)NC(=O)[C@H](Cc3ccc(OCC(=O)O)cc3)NC(=O)[C@H](CCCNC(=N)N)NC(=O)CSC[C@@H](C(=O)N[C@H](C(=O)NCCCCCCCCCCC(=O)O)C(C)(C)CCN)NC(=O)[C@H]([C@@H](C)O)NC(=O)[C@H](C(C)C)NC(=O)[C@H](CC3CCCCC3)NC(=O)[C@H](CCN)NC(=O)[C@@H](CC(C)C)NC(=O)[C@H](CCCN)NC(=O)[C@H](Cc3ccc(OCC(=O)O)cc3)NC(=O)[C@H](Cc3ccc(-c4ccccc4)cc3)NC(=O)[C@H](Cc3ccc(O)cc3)NC2=O)c1 [Compound 2116] ({CH2CO}-RY(Carboxymethyl)D[Phe(3-Me)]Y[Bip]Y(Carboxymethyl)[Orn][dL][Dab][Cha]VTC[X5][Aun]-OH; thioether N-14) | 53.5 |
| Cc1cccc(C[C@@H]2NC(=O)[C@H](CC(=O)O)NC(=O)[C@H](Cc3ccc(OCC(=O)O)cc3)NC(=O)[C@H](CCCNC(=N)N)NC(=O)CSC[C@@H](C(=O)N[C@@H](CCNC(=O)C(C)(C)C)C(=O)NCCCCCCCCCCC(=O)O)NC(=O)[C@H]([C@@H](C)O)NC(=O)[C@H](C(C)C)NC(=O)[C@H](CC3CCCCC3)NC(=O)[C@H](CCN)NC(=O)[C@@H](CC(C)C)NC(=O)[C@H](CCCN)NC(=O)[C@H](Cc3ccc(OCC(=O)O)cc3)NC(=O)[C@H](Cc3ccc(-c4ccccc4)cc3)NC(=O)[C@H](Cc3ccc(O)cc3)NC2=O)c1 [Compound 2117] ({CH2CO}-RY(Carboxymethyl)D[Phe(3-Me)]Y[Bip]Y(Carboxymethyl)[Orn][dL][Dab][Cha]VTC[Dab](Piv)[Aun]-OH; thioether N-14) | 26.3 |
| Cc1cccc(C[C@@H]2NC(=O)[C@H](CC(=O)O)NC(=O)[C@H](Cc3ccc(OCC(=O)O)cc3)NC(=O)[C@H](CCCNC(=N)N)NC(=O)CSC[C@@H](C(=O)N[C@@H](CCN)C(=O)NCCCCCCCCCCC(=O)O)NC(=O)[C@H](C(C)(C)CCN)NC(=O)C(C(C)C)NC(=O)[C@H](CC3CCCCC3)NC(=O)[C@H](CCN)NC(=O)[C@@H](CC(C)C)NC(=O)[C@H](CCCN)NC(=O)[C@H](Cc3ccc(OCC(=O)O)cc3)NC(=O)[C@H](Cc3ccc(-c4ccccc4)cc3)NC(=O)[C@H](Cc3ccc(O)cc3)NC2=O)c1 (stereo partly drawn) [Compound 2118] ({CH2CO}-RY(Carboxymethyl)D[Phe(3-Me)]Y[Bip]Y(Carboxymethyl)[Orn][dL][Dab][Cha][ξV][X5]C[Dab][Aun]-OH; thioether N-14) | 126 |

Compounds with a lower IC50, results first:

| IC50 [nM] | SMILES |
| --- | --- |
| 6.4 | Cc1cccc(C[C@@H]2NC(=O)[C@H](CC(=O)O)NC(=O)[C@H](Cc3ccc(OCC(=O)O)cc3)NC(=O)[C@H](CCCNC(=N)N)NC(=O)CSC[C@@H](C(=O)N[C@@H](CCN)C(=O)NCCCCCCCCCCC(=O)O)NC(=O)[C@H](CO)NC(=O)[C@H](C(C)(C)O)NC(=O)[C@H](CC3CCCCC3)NC(=O)[C@H](CCN)NC(=O)[C@@H](CC(C)C)NC(=O)[C@H](CCCN)NC(=O)[C@H](Cc3ccc(OCC(=O)O)cc3)NC(=O)[C@H](Cc3ccc(-c4ccccc4)cc3)NC(=O)[C@H](Cc3ccc(O)cc3)NC2=O)c1 [Compound 2111] ({CH2CO}-RY(Carboxymethyl)D[Phe(3-Me)]Y[Bip]Y(Carboxymethyl)[Orn][dL][Dab][Cha][Val(3-OH)]SC[Dab][Aun]-OH; thioether N-14) |
| 5.5 | Cc1cccc(C[C@@H]2NC(=O)[C@H](CC(=O)O)NC(=O)[C@H](Cc3ccc(OCC(=O)O)cc3)NC(=O)[C@H](CCNC(=O)C(C)(C)C)NC(=O)CSC[C@@H](C(=O)N[C@@H](CCN)C(=O)NCCCCCCCCCCC(=O)O)NC(=O)[C@H](CCC(N)=O)NC(=O)[C@H](C(C)C)NC(=O)[C@H](CC3CCCCC3)NC(=O)[C@H](CCN)NC(=O)[C@@H](CC(C)C)NC(=O)[C@H](CCCN)NC(=O)[C@H](Cc3ccc(OCC(=O)O)cc3)NC(=O)[C@H](Cc3ccc(-c4ccccc4)cc3)NC(=O)[C@H](Cc3ccc(O)cc3)NC2=O)c1 [Compound 2112] ({CH2CO}-[Dab](Piv)Y(Carboxymethyl)D[Phe(3-Me)]Y[Bip]Y(Carboxymethyl)[Orn][dL][Dab][Cha]VQC[Dab][Aun]-OH; thioether N-14) |
| 8.7 | Cc1cccc(C[C@@H]2NC(=O)[C@H](CC(=O)O)NC(=O)[C@H](Cc3ccc(OCC(=O)O)cc3)NC(=O)[C@H](CCCNC(=N)N)NC(=O)CSC[C@@H](C(=O)N[C@@H](CCN)C(=O)NCCCCCCCCCCC(=O)O)NC(=O)[C@H](CCC(N)=O)NC(=O)[C@H](C(C)C)NC(=O)[C@H](CC3CCCCC3)NC(=O)[C@H](CCN)NC(=O)[C@@H](CC(C)C)NC(=O)[C@H](CCCN)NC(=O)[C@H](Cc3ccc(OCC(=O)O)cc3)NC(=O)[C@H](Cc3ccc(-c4ccccc4)cc3)NC(=O)[C@H](C(C)(C)O)NC2=O)c1 [Compound 2113] ({CH2CO}-RY(Carboxymethyl)D[Phe(3-Me)][Val(3-OH)][Bip]Y(Carboxymethyl)[Orn][dL][Dab][Cha]VQC[Dab][Aun]-OH; thioether N-14) |
| 10 | CC(=O)COc1ccc(C[C@@H]2NC(=O)[C@H](Cc3cccc(C)c3)NC(=O)[C@H](CC(=O)O)NC(=O)[C@H](Cc3ccc(OCC(=O)O)cc3)NC(=O)[C@H](CCCNC(=N)N)NC(=O)CSC[C@@H](C(=O)N[C@@H](CCN)C(=O)NCCCCCCCCCCC(=O)O)NC(=O)[C@H]([C@@H](C)O)NC(=O)[C@H](C(C)C)NC(=O)[C@H](CC3CCCCC3)NC(=O)[C@H](CCN)NC(=O)[C@@H](CC(C)C)NC(=O)[C@H](CCCN)NC(=O)[C@H](Cc3ccncc3)NC(=O)[C@H](Cc3ccc(-c4ccccc4)cc3)NC2=O)cc1 [Compound 2114] ({CH2CO}-RY(Carboxymethyl)D[Phe(3-Me)]Y(CH2COCH2)[Bip][4Pal][Orn][dL][Dab][Cha]VTC[Dab][Aun]-OH; thioether N-14) |
| 10.3 | Cc1cccc(C[C@@H]2NC(=O)[C@H](CC(=O)O)NC(=O)[C@H](Cc3ccc(OCC(=O)O)cc3)NC(=O)[C@H](CCCNC(=N)N)NC(=O)CSC[C@@H](C(=O)N[C@@H](CCN)C(=O)NCCCCCCCCCCC(=O)O)NC(=O)[C@H](CCNC(=O)C(C)(C)C)NC(=O)[C@H](C(C)C)NC(=O)[C@H](CC3CCCCC3)NC(=O)[C@H](CCN)NC(=O)[C@@H](CC(C)C)NC(=O)[C@H](CCCN)NC(=O)[C@H](Cc3ccc(OCC(=O)O)cc3)NC(=O)[C@H](Cc3ccc(-c4ccccc4)cc3)NC(=O)[C@H](Cc3ccc(O)cc3)NC2=O)c1 [Compound 2119] ({CH2CO}-RY(Carboxymethyl)D[Phe(3-Me)]Y[Bip]Y(Carboxymethyl)[Orn][dL][Dab][Cha]V[Dab](Piv)C[Dab][Aun]-OH; thioether N-14) |
